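The compound was tested at five concentrations on cells cultured in 96-well plates, with a 48-hour exposure period. GI50 marks 50% less growth. TGI is the concentration that stops growth completely.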 *1 amine or outer side, *2 acyl side, *3 side chain or, on linkers, in order; H or OH if unused. Where a SMILES comes first, the peptide text is derived from it. Bridges are numbered along the chain shown (N, C = ends). [ ]: non-standard residue; d: D form. The star is where a group is joined. X19 = O=C([C@H](N[*:1])c1ccc(O[C@H]2O[C@@H](CO)[C@@H](O)[C@@H](O)[C@H]2O[C@@H]2O[C@H](CO)[C@H](O)[C@H](O)[C@@H]2O)cc1)[*:2]; X18 = NC(=O)[C@@H](O[*:3])[C@H](N[*:1])C(=O)[*:2]; X20 = O=C([C@H](N[*:1])c1ccc(O)c(Cl)c1)[*:2]; d(aThr) = C[C@@H](O)[C@@H](N)C(=O)O; dHpg = N[C@@H](C(=O)O)c1ccc(O)cc1; X17 = CC(C)C/C=C/C=C/C(=O)*; dOrn = NCCC[C@@H](N)C(=O)O

Holding throughout (assay): inhibition of tumour cell growth, NCI panel, 48 h
Assay [1] deals with KM12 colon.
Assay [2] concerns OVCAR-4 ovarian.
Assay [3] deals with UACC-257 melanoma.
In assay [4] the test system is SNB-75 CNS.
Assay [5] has as its system LOX IMVI melanoma.
Assay [6] has as its system A498 renal.
In assay [7] the test system is MOLT-4 leukemia.
Assay [8] relates to M14 melanoma.
Assay [9] has as its system HCT-15 colon.
Assay [10] has as its system NCI-H226 lung.

As for `O=C(O)CCSC(=O)Nc1cccc([N+](=O)[O-])c1`, the TGI in assay [1], in [2], in assay [3], in assay [4], in assay [5] and in [6] was above 100 µM each time. For the same molecule, the TGI in assay [7], in assay [8] and in [9] was above 100 µM in each case.
With `COC1OC(CBr)C(OC(c2ccccc2)(c2ccccc2)c2ccccc2)C(OC(c2ccccc2)(c2ccccc2)c2ccccc2)C1OC(c1ccccc1)(c1ccccc1)c1ccccc1` (stereo unspecified), the TGI in [1] was above 100 µM; in [2], 60.8 µM; in [10], 96.3 µM; in [3] it was above 100 µM; in [5], above 100 µM; in assay [6] it was above 100 µM. The TGI in assay [7], in assay [8] and in assay [9] was above 100 µM throughout.
Consider `Cc1[nH]c2ccccc2c1C1CC(=O)NC1=O` (stereo unspecified), for which the TGI in [1], in [2], in assay [10], in assay [3], in assay [4] and in assay [6] was above 100 µM throughout. In addition, the TGI in assay [7], in assay [8] and in assay [9] was above 100 µM in each case.
With `N#CC(C(=O)CCC(=O)Nc1ccc(Cl)cc1)c1ccccc1Cl` (stereo unspecified), the TGI in assay [1], in assay [2], in assay [10], in assay [3], in assay [4] and in [6] was above 100 µM each time. Further, the TGI in assay [7], in assay [8] and in assay [9] was above 100 µM in each case.
Consider `O=C1c2cccc3cc([N+](=O)[O-])cc(c23)C(=O)N1CCN1CCCC1`, for which the GI50 is 551 nM in assay [1]; 1.48 µM in assay [2]; 193 nM in assay [10]; 388 nM in [4]; 297 nM in [5]; 319 nM in assay [6]. Further, the GI50 in [7] was 0.237 µM; in assay [8] it was 451 nM; in assay [9], 334 nM. Further, the TGI in assay [1] came out at 9.02 µM; in assay [2], 11.7 µM; in assay [10] it was 0.632 µM; in [4] it was 2.27 µM; in [5] it was 3.27 µM; in assay [6], 1.65 µM. The TGI in assay [7] was above 100 µM; in assay [8], 2.08 µM.
On to `O=C(O)CN(c1ccccc1)S(=O)(=O)c1ccc(Cl)cc1`, for which the TGI in [2], in [3], in assay [4], in assay [5], in assay [6] and in assay [7] was above 100 µM throughout. Moreover, the TGI in [8] and in [9] was above 100 µM in each case.
On to `CC1(C)CCC2(C(=O)O)CC[C@]3(C)C(=CCC4C5(C)CC[C@H](OC6OC(C(=O)O)C(O)C(OC7OC(CO)C(O)C(O)C7O)C6OC6OC(CO)C(O)C(O)C6O)C(C)(C)C5CCC43C)C2C1` (stereo partly specified), for which the GI50 was above 100000 nM in [1]; above 100000 nM in assay [10]; above 100 µM in [3]; above 100000 nM in assay [6]; 86.3 µM in assay [7]; 79900 nM in assay [8]. In assay [9], the GI50 is 94600 nM. Moreover, the TGI in assay [1], in assay [10], in assay [3], in [6], in assay [7] and in [8] was above 100 µM each time. The molecule also came in with a TGI in [9] above 100 µM.
As to `C[Si](C)(C)/C=C\CCCN1C(=O)CCC1=O`, the TGI in assay [1], in assay [3], in [4], in [5], in assay [6] and in assay [7] was above 100 µM each time. Moreover, the TGI in assay [8] and in assay [9] was above 100 µM each time.
Turning to `CC1=C(C(=O)NCC(C)O)CC(C(=O)NCC(C)O)=C(C)N1` (stereo unspecified), the TGI in assay [1], in [2], in assay [10], in assay [3], in assay [4] and in assay [5] was above 100 µM in each case. Besides, the TGI in assay [7], in [8] and in [9] was above 100 µM each time.
On to `C=CCCC(C)N(C(=O)OC(C)(C)C)S(=O)(=O)c1ccc(C)cc1` (stereo unspecified), for which the TGI in [1], in assay [2], in assay [10], in assay [3], in assay [4] and in assay [5] was above 100 µM each time. Moreover, the TGI in assay [7], in [8] and in assay [9] was above 100 µM throughout.
As for `O=C(Nc1ccc(Cl)cc1)c1cc2cc(F)ccc2cc1O`, the GI50 is 2740 nM in assay [1]; 2.56 µM in assay [2]; 2500 nM in [10]; 1.34 µM in assay [3]; 2110 nM in assay [5]; 553 nM in assay [6]. Further, the GI50 in assay [7] is 3.24 µM; in assay [8] it was 2230 nM; in assay [9] it was 1780 nM. Further, the TGI in assay [1] was above 100 µM; in assay [2], 8.99 µM; in assay [10] it was 7.99 µM; in [3], 5.2 µM; in assay [5], 10.7 µM; in assay [6] it was 2.74 µM. The TGI in assay [7] was 16.4 µM; in [8], above 100 µM; in assay [9], above 100 µM.
For `O=S(=O)(NCCCNc1cc(-c2cn(-c3ccccc3)nc2-c2cccc(O)c2)ccn1)c1cccc2ccccc12`, the GI50 in assay [1] is 2490 nM; in assay [2], 3.06 µM; in assay [10], 3400 nM; in assay [4], 2350 nM; in [5] it was 1560 nM; in assay [6] it was 1090 nM. The results for the GI50 in [8] and in assay [9] were 2140 nM and 1800 nM, respectively. Moreover, the TGI in assay [1] was 7.57 µM; in assay [2], above 100 µM; in assay [10] it was 45.7 µM; in assay [4] it was above 100 µM; in [5] it was 3.29 µM; in assay [6] it was 6.62 µM. Moreover, the TGI in [8] amounted to 5.3 µM; in assay [9], 6.59 µM.
In the case of `C[C@@H](Oc1cc(NS(=O)(=O)N2CCC2)nc(SCc2cccc(F)c2F)n1)[C@@H](O)CO`, the GI50 in assay [1] was above 100000 nM; in assay [2], above 100 µM; in assay [10], above 100000 nM; in assay [3], above 100 µM; in [4], above 100000 nM; in assay [5], above 100000 nM. For the same molecule, the GI50 was above 100 µM in [7], above 100000 nM in assay [8] and above 100000 nM in [9]. The TGI in assay [1], in assay [2], in assay [10], in assay [3], in assay [4] and in assay [5] was above 100 µM each time. Further, the TGI in assay [7], in assay [8] and in [9] was above 100 µM throughout.
Take `N#Cc1nn(C2OC(COC(=O)c3ccccc3)C(OC(=O)c3ccccc3)C2OC(=O)c2ccccc2)c2nc[nH]c(=O)c12` (stereo unspecified): the TGI is above 100 µM in [2]; above 100 µM in assay [10]; above 100 µM in assay [3]; above 100 µM in [4]; 47.2 µM in assay [6]; 95.4 µM in [7]. Also, the TGI in assay [8] and in assay [9] was above 100 µM in each case.
`CC(C)C/C=C/C=C/C(=O)N[C@@H](CC(N)=O)C(=O)N[C@@H]1C(=O)N[C@H](c2ccc(O)cc2)C(=O)N[C@H](CCCN)C(=O)N[C@H]([C@@H](C)O)C(=O)N[C@H](c2ccc(O)cc2)C(=O)N[C@H](c2ccc(O)cc2)C(=O)N[C@H]([C@H](C)O)C(=O)N[C@H](Cc2ccccc2)C(=O)N[C@H](CCCN)C(=O)N[C@H](c2ccc(O[C@H]3O[C@@H](CO)[C@@H](O)[C@@H](O)[C@H]3O[C@@H]3O[C@H](CO)[C@H](O)[C@H](O)[C@@H]3O)cc2)C(=O)N[C@H]([C@H](C)O)C(=O)N[C@H](c2ccc(O)cc2)C(=O)NCC(=O)N[C@H](CC(C)C)C(=O)N[C@H](C)C(=O)N[C@H](c2ccc(O)c(Cl)c2)C(=O)O[C@@H]1C(N)=O` (X17-N[X18][dHpg][dOrn][d(aThr)][dHpg][dHpg][dT][dF][dOrn][X19][dT][dHpg]G[dL][dA][X20]; ester 2-C): the GI50 in assay [1] was 27800 nM; in assay [2], 39.2 µM; in [3], 21.9 µM; in [4], 29400 nM; in [5] it was 29500 nM; in [6], 80900 nM. Besides, the GI50 in assay [7] was 31.7 µM; in [8], 38400 nM; in [9], 30300 nM. Besides, the TGI was above 100 µM in assay [1]; above 100 µM in assay [2]; 47.4 µM in assay [3]; 79.8 µM in assay [4]; above 100 µM in assay [5]; above 100 µM in assay [6]. Further, the TGI in [7], in [8] and in assay [9] was above 100 µM in each case.
Consider `ClC1(c2ccccc2)c2ccc(Br)cc2-c2cc(Br)ccc21`, for which the TGI in assay [1] was 38.5 µM; in assay [2], 27.3 µM; in assay [10] it was 36.4 µM; in assay [3], 34.9 µM; in assay [5], 33.2 µM; in assay [6] it was 32.8 µM. For the same molecule, the TGI was above 100 µM in assay [7], 28.7 µM in [8] and 33.8 µM in [9].
Take `CCOC(=O)/C(C#N)=C\C=C1/C=CNC2=NCCN21`: the TGI in assay [1], in assay [2], in assay [10], in assay [3], in assay [4] and in assay [5] was above 100 µM each time. Besides, the TGI in assay [7], in assay [8] and in assay [9] was above 100 µM each time.
For the molecule `Cc1ccc(C(=O)CCC2C(=O)CC(C)(C)CC2=O)cc1`, the TGI in assay [1], in assay [2], in [10], in [3], in [4] and in assay [5] was above 100 µM in each case. In addition, the TGI in [7], in assay [8] and in assay [9] was above 100 µM in each case.
In the case of `CCCCCCCC(=O)OCC1OC(n2cc(F)c(=O)[nH]c2=O)C(NC(=O)OCc2ccccc2)C(OC(=O)CCCCCCC)C1O` (stereo unspecified), the TGI is above 100 µM in assay [1]; 83 µM in assay [2]; above 100 µM in [3]; above 100 µM in assay [4]; 29.7 µM in assay [5]; above 100 µM in assay [6]. The TGI in assay [7] was above 100 µM; in assay [8], 91.7 µM; in assay [9] it was above 100 µM.
For `CC(Oc1ccc(OCC2CCCCC2)cc1)C(=O)O` (stereo unspecified), the TGI in [1], in assay [2], in [10], in assay [3], in assay [4] and in [5] was above 100 µM in each case. Moreover, the TGI in assay [7], in assay [8] and in assay [9] was above 100 µM throughout.
Regarding `CCCC1C(=O)C(CC)Cc2c(OC)ccc(OC)c21` (stereo unspecified), the TGI in assay [1], in [2], in assay [10], in assay [3], in assay [4] and in [5] was above 100 µM in each case. The TGI in assay [7], in assay [8] and in assay [9] was above 100 µM in each case.
With `CC([C@H]1CCC2C3CCC4CC5(CC[C@]4(C)C3CC[C@@]21C)c1ccccc1C(=O)N5C)N(C)C` (stereo partly specified), the TGI in [1] is above 100 µM; in assay [2] it was above 100 µM; in assay [4], 74.1 µM; in assay [5] it was 4.21 µM; in assay [6] it was above 100 µM; in [7] it was 91.7 µM. Besides, the TGI in assay [8] was 38.7 µM; in assay [9] it was above 100 µM.

Source of the values: PubChem BioAssay (NCI).
